Results from patent US5034309A, “Naphthalocyanine derivatives and their use in optical recording medium” (Hitachi Chemical Co., Ltd., priority 1987, dated 1991).

Columns and labels:
[1] = transmission and 5° regular-reflection spectra of spin-coated organic film on glass plate; type: physicochemical; details: 2 parts in 98 parts 1,1,2-trichloroethane
Experimental: A solution composed of 2 parts by weight of bis(tri-n-propylsiloxy)silicon-tetra(n-dodecylthio)naphthalocyanine [illustrative compound (100)] and 98 parts by weight of 1,1,2-trichloroethane was coated on a glass plate by a spin coating method and dried at about 80° C. for about 15 minutes to form an organic film. Transmission spectrum and 5° regular-reflection spectrum of the organic film of the illustrative compound are shown in FIG. 39 and FIG. 40, respectively.
An organic film of the same vanadyl-tetra(t-butyl) naphthalocyanine as used in Comparative Example 1 was formed on a glass plate in the same manner as in Test Example 2, and transmission spectrum (FIG. 43) and 5° regular-reflection spectrum (FIG. 44) of the organic film were measured.
A solution composed of 1 part by weight of each of the naphthalocyanine derivatives (127), (99) and (102) exemplified and 99 parts by weight of tetrahydrofuran was coated on a glass plate by a spin coating method and dried at about 80° C. for about 15 minutes to form an organic film. Transmission spectra and 5° regular-reflection spectra of the thus formed organic films of the naphthalocyanine derivatives are summarized in FIG. 45 and FIG. 46, respectively.

[2] = electronic spectra in various solvents; type: physicochemical
Experimental: Bis(tri-n-propylsiloxy)silicon-tetra(ndodecylthio)n-aphthalocyanine [illustrative compound (100)] was dissolved in various solvents and its electronic spectra were measured. The electronic spectra in chloroform, tetrahydrofuran, acetone, toluene and hexane are shown in […], FIG. 35, FIG. 36, FIG. 37 and FIG. 38, respectively.
Vanadyl-tetra(t-butyl)-naphthalocyanine synthesized according to the method described in Zhurnal Obshchei Khimii, vol. 42, p. 696 (1972) was dissolved in each of chloroform and benzene and its electronic spectra were measured. The electronic spectra in chloroform and benzene are shown in FIG. 41 and FIG. 42, respectively.

reflectivity in the diode laser region (780 to 830 nm) [1]: ≤ 20%
Substance: Vanadyl-tetra(t-butyl)-naphthalocyanine
light-absorbing ability in the diode laser region (780 to 830 nm) [1]: did not have very high light-absorbing ability
change of absorption with concentration ([2]; electronic spectra in chloroform and benzene): The higher the concentration, the weaker the absorption near 800 nm and the stronger the absorption at 720 to 730 nm
dependence of absorption waveform on kind of solvent and concentration ([2]; electronic spectra in solution): varied depending on the kind of solvent and the conventration of solution
